assay: method code G-GLC, from DOI: 10.1021/je0101909

SMILES | logP
Clc1ccc(-c2cc(Cl)c(Cl)c(Cl)c2)c(Cl)c1 | 6.5
Clc1cc(-c2cc(Cl)c(Cl)c(Cl)c2Cl)cc(Cl)c1Cl | 7.15
Clc1ccc(-c2cc(Cl)c(Cl)c(Cl)c2Cl)cc1 | 6.47
Clc1ccc(-c2ccc(Cl)c(Cl)c2Cl)cc1Cl | 6.61
Clc1ccc(-c2cc(Cl)c(Cl)c(Cl)c2Cl)cc1Cl | 6.75
Clc1ccc(-c2cc(Cl)c(Cl)c(Cl)c2)cc1Cl | 6.56
Clc1ccc(-c2cc(Cl)c(Cl)c(Cl)c2)cc1 | 6.53
Clc1cc(Cl)c(-c2cc(Cl)c(Cl)c(Cl)c2)cc1Cl | 6.82
Clc1cc(-c2ccc(Cl)c(Cl)c2Cl)cc(Cl)c1Cl | 6.73
Clc1cc(-c2cc(Cl)c(Cl)c(Cl)c2)cc(Cl)c1Cl | 7.01
Clc1ccc(-c2cc(Cl)c(Cl)cc2Cl)cc1Cl | 6.49

From the SangsterLogP compilation
